Test results from patent US9359301B2, “Ethynyl derivatives” (Hoffmann-La Roche Inc., priority 2012, dated 2016).

What was measured:
[1] = molecular target: T1, human mGlu5a receptor (Homo sapiens (Human), UniProt P41594); experiment: Intracellular Ca2+ mobilization assay (mGlu5 PAM assay); assay type: cell-based; settings: for mGlu5 PAM EC50: HEK-293 cells, human mGlu5a, L-glutamate at EC20; for Activity profile: PAM = positive, NAM = negative allosteric modulator of mGlu5; for EC50 mGlu5 PAM assay: comparison table; for Efficacy: maximal response in % of maximal stimulatory effect of saturating L-glutamate
Experimental: A monoclonal HEK-293 cell line stably transfected with a cDNA encoding for the human mGlu5a receptor was generated; for the work with mGlu5 Positive Allosteric Modulators (PAMs), a cell line with low receptor expression levels and low constitutive receptor activity was selected to allow the differentiation of agonistic versus PAM activity. Cells were cultured according to standard protocols (Freshney, 2000) in Dulbecco's Modified Eagle Medium with high glucose supplemented with 1 mM glutamine, 10% (vol/vol) heat-inactivated bovine calf serum, Penicillin/Streptomycin, 50 μg/ml hygromycin and 15 μg/ml blasticidin (all cell culture reagents and antibiotics from Invitrogen, Basel, Switzerland).
About 24 hrs before an experiment, 5×10^4 cells/well were seeded in poly-D-lysine coated, black/clear-bottomed 96-well plates. The cells were loaded with 2.5 μM Fluo-4AM in loading buffer (1×HBSS, 20 mM HEPES) for 1 hr at 37° C. and washed five times with loading buffer. The cells were transferred into a Functional Drug Screening System 7000 (Hamamatsu, Paris, France), and 11 half logarithmic serial dilutions of test compound at 37° C. were added and the cells were incubated for 10-30 min. with on-line recording of fluorescence. Following this pre-incubation step, the agonist L-glutamate was added to the cells at a concentration corresponding to EC20 (typically around 80 μM) with on-line recording of fluorescence; in order to account for day-to-day variations in the responsiveness of cells, the EC20 of glutamate was determined immediately ahead of each experiment by recording of a full dose-response curve of glutamate.
Responses were measured as peak increase in fluorescence minus basal (i.e. fluorescence without addition of L-glutamate), normalized to the maximal stimulatory effect obtained with saturating concentrations of L-glutamate. Graphs were plotted with the % maximal stimulatory using XLfit, a curve fitting program that iteratively plots the data using Levenburg Marquardt algorithm. The single site competition analysis equation used was y=A+((B−A)/(1+((x/C)D))), where y is the % maximal stimulatory effect, A is the minimum y, B is the maximum y, C is the EC50, x is the log 10 of the concentration of the competing compound and D is the slope of the curve (the Hill Coefficient). From these curves the EC50 (concentration at which half maximal stimulation was achieved), the Hill coefficient as well as the maximal response in % of the maximal stimulatory effect obtained with saturating concentrations of L-glutamate were calculated.
A depression of the signal observed after addition of the EC20 concentration of L-glutamate was indicative of an inhibitory activity of the test compound.

[2] = molecular target: T1, human mGlu5a receptor; experiment: MPEP binding assay ([3H]MPEP displacement); settings: for EC50: [3H]MPEP 2 nM, EBNA cell membranes, 1 h at 4° C., read-out: mGlu5-MPEP binding EC50; for Ki: comparison table
Experimental: For binding experiments, cDNA encoding human mGlu 5a receptor was transiently transfected into EBNA cells using a procedure described by Schlaeger and Christensen [Cytotechnology 15:1-13 (1998)]. Cell membrane homogenates were stored at −80° C. until the day of assay where upon they were thawed and resuspended and polytronised in 15 mM Tris-HCl, 120 mM NaCl, 100 mM KCl, 25 mM CaCl2, 25 mM MgCl2 binding buffer at pH 7.4 to a final assay concentration of 20 μg protein/well.
Saturation isotherms were determined by addition of twelve [^3H]MPEP concentrations (0.04-100 nM) to these membranes (in a total volume of 200 μl) for 1 h at 4° C. Competition experiments were performed with a fixed concentration of [^3H]MPEP (2 nM) and IC50 values of test compounds evaluated using 11 concentrations (0.3-10,000 nM). Incubations were performed for 1 h at 4° C.
At the end of the incubation, membranes were filtered onto unifilter (96-well white microplate with bonded GF/C filter preincubated 1 h in 0.1% PEI in wash buffer, Packard BioScience, Meriden, Conn.) with a Filtermate 96 harvester (Packard BioScience) and washed 3 times with cold 50 mM Tris-HCl, pH 7.4 buffer. Nonspecific binding was measured in the presence of 10 μM MPEP. The radioactivity on the filter was counted (3 min) on a Packard Top-count microplate scintillation counter with quenching correction after addition of 45 μl of microscint 40 (Canberra Packard S. A., Zürich, Switzerland) and shaking for 20 min.

T1 sequence (P41594 other isoform, or with tags, fused parts or gaps): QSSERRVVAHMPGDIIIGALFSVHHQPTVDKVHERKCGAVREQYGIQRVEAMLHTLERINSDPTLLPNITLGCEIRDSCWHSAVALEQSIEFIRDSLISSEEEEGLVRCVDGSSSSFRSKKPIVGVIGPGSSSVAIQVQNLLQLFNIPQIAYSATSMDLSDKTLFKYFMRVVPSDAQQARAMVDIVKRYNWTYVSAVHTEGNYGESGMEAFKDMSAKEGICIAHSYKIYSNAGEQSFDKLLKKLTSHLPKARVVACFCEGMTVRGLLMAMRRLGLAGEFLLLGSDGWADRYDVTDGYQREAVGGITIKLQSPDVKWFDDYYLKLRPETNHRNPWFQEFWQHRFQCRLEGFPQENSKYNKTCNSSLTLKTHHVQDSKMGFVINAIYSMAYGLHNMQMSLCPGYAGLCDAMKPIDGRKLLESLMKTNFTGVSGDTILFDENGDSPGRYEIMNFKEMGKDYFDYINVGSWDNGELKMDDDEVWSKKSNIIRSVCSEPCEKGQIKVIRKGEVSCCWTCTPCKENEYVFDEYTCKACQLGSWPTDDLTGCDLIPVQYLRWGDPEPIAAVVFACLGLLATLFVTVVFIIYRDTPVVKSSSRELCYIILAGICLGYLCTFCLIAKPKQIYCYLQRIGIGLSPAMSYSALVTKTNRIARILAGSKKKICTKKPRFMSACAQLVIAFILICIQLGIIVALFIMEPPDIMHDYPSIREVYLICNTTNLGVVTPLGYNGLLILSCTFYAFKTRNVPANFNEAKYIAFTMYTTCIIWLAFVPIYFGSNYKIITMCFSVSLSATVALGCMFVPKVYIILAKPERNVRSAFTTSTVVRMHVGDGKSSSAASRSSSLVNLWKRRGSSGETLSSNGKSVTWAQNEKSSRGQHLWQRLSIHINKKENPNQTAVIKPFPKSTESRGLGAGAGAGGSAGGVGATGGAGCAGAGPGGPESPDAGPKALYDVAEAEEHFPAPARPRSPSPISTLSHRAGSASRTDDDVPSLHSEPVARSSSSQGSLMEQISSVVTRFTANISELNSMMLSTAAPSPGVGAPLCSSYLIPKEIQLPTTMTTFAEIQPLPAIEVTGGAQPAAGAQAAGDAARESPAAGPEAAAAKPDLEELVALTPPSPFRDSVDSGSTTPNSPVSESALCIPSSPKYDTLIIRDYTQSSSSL

| SMILES | mGlu5 PAM EC50 [1] | Activity profile [1] | EC50 mGlu5 PAM assay [1] | EC50 [2] | Ki [2] | Efficacy [1] |
| --- | --- | --- | --- | --- | --- | --- |
| CCN(C(=O)c1ncc(C#Cc2cccc(F)c2)cn1)C(C)(C)C [Example 3, 5-(3-Fluoro-phenylethynyl)-pyrimidine-2-carboxylic acid tert-butyl-ethyl-amide] | in- active | NAM | inactive | 0.094 µM | 0.094 µM | – |
| CCN(C(=O)c1ncc(C#Cc2cccc(Cl)c2)cn1)C(C)(C)C [Example 4, 5-(3-Chloro-phenylethynyl)-pyrimidine-2-carboxylic acid tert-butyl-ethyl-amide] | in- active | NAM | inactive | 0.046 µM | 0.046 µM | – |
| CN(C(=O)c1ccc(C#Cc2cccc(F)c2)cn1)C(C)(C)C [Reference compound 1, reference compound] | – | PAM | – | 0.029 µM | – | 64% |
| CN(C(=O)c1ncc(C#Cc2cccc(F)c2)cn1)C(C)(C)C [Reference compound 2, reference compound] | – | PAM | – | 0.051 µM | 0.051 µM | 55% |
| CCN(C(=O)c1ccc(C#Cc2cccc(Cl)c2)cn1)C(C)(C)C [Example 2, 5-(3-Chloro-phenylethynyl)-pyridine-2-carboxylic acid tert-butyl-ethyl-amide] | in- active | NAM | inactive | 0.024 µM | 0.024 µM | – |
| CCN(C(=O)c1ccc(C#Cc2cccc(F)c2)cn1)C(C)(C)C [Example 1, 5-(3-Fluoro-phenylethynyl)-pyridine-2-carboxylic acid tert-butyl-ethyl-amide] | in- active | NAM | inactive | 0.042 µM | 0.042 µM | – |
